From patent US20050013781A1, “Sunscreen composition” (Playtex Products, Inc., priority 2003, published 2005)

Columns and labels:
Type in all cases: physicochemical
[1] = Dielectric constant of glycols and derivatives; conditions: for Dielectric Constant, 23° C.: neat glycol/derivative
Description: Determining the polarity of a mixture or an emulsion can be performed in various ways. For example, determining a polarity can include measuring a property that is a function of polarity, such as a dielectric constant. Measurement of a dielectric constant of a liquid can be performed by various sensors, such as immersion probes, flow-through probes, and cup-type probes, attached to various meters, such as those available from the Brookhaven Instruments Corporation of Holtsville, N.Y. (e.g., model BI-870) and the Scientifica Company of Princeton, N.J. (e.g. models 850 and 870). For consistency of comparison, preferably all measurements for a particular filter system are performed at substantially the same sample temperature, e.g., by use of a water bath. Generally, the measured dielectric constant of a substance will increase at lower temperatures and decrease at higher temperatures.
Dielectric Constants of the following glycols and their derivatives have been measured (see Table 1).

[2] = Photostability on VITRO-SKIN: retained absorbance and critical wavelength before and after irradiation
Protocol: Referring to Table 7 above, the compositions were applied on Vitro-Skin (0.6 mg/cm2) and irradiated. The irradiation dose was 5 MEDs repeated 4 times (=20 MEDs total). Retained Absorbance at 370 nm (UVA photostability, FIG. 1), 310 nm (UVB photostability, FIG. 2) and critical wavelength (Table 8, FIG. 3) were determined for each composition before and after each irradiation dose in order to determine their photostability.
The resulting sunscreen oil phases were tested for photostability by measuring absorbance on a Labsphere UV-1000S Ultraviolet Transmittance Analyzer before and after irradiation with a Solar Light Company model 16S solar simulator (equipped with a WG 320 filter to transmit radiation greater than 290 nm) in 5 MED (105 mJ/cm^2) increments up to 20 MED cumulative dose. Output was monitored by a PMA 2105 UV-B DCS Detector (biologically weighted) and controlled by a PMA 2100 Automatic Dose Controller (Solar Light Co.).
A synthetic skin substrate was used for testing the sunscreen compositions (VITRO-SKIN substrate by IMS, Inc. of Milford, Conn.). To prepare the substrate, a 300 g solution of 44 g of glycerin and 256 g of deionized water was added to an IMS hydrating chamber, and a sheet of VITRO-SKIN was placed in the hydrating chamber for approx. 16 hours. Several 6.5 cm squares were cut from the hydrated VITRO-SKIN and used for absorbance measurements.
To prepare slides for testing, sunscreen composition is drawn or placed into a pipette. The test composition is uniformly applied to VITRO-SKIN square (0.6 mg/cm^2). This application dose of the oil phase, 0.6 mg/cm^2, corresponds to the application dose of 2 mg/cm^2 of sunscreen formulation (typically the concentration of the oil phase in the sunscreen formulation is about 30%). The VITRO-SKIN square was then placed on a foam block, and the test material was spread by finger (covered with a latex glove or finger cot), first in a circular motion, then by a side-to-side motion during which the VITRO-SKIN is deformed by the pressure. The square was then mounted in a slide holder and allowed to dry for about 15 to 20 minutes.
To test photostability, a slide was positioned on the UV transmittance analyzer using registration marks, and a scan of 1 sq. cm spot on the slide was performed. The slide was then transferred to a holder placed adjacent to the solar simulator and, using a calipers, was positioned such that the beam of UV radiation exiting the solar simulator illuminated the same 1 cm spot on the slide. The following software settings were used: UV-B—290-320 nm; UV-A—320-400 nm; SPF—290-400 nm; Spectral Irradiance; Noon, July 3, Albuquerque, N.Mex.; SPF Spectral Irradiance and Erythermal Effectiveness settings as set by manufacturer. Following an exposure of 5 MED, the slide was again placed in position on the UV transmittance analyzer, and a scan of the exposed spot was performed. The procedure was repeated on the same 1 cm spot on the slide until the desired total radiation dosage was achieved.
The above compositions were applied on Vitro-Skin (0.6 mg/cm2) and irradiated. The irradiation dose was 5 MEDs repeated 4 times (=20 MEDs total). Retained Absorbance at 370 nm (Table 11 and FIG. 4), 310 nm (Table 12) and critical wavelength (Table 13 and FIG. 5) were determined for each composition before and after each irradiation dose in order to determine their photostability. The methodology is described above in more detail in Example 3.

[3] = DOE (central composite design) photostability of model oil phases: retained absorbance after 15 MED; conditions: response surface analysis of DOE 1-3
Protocol: In order to determine the impact of the concentration of avobenzone, from 0.04842 M to 0.0968 M (Factor 1) and different molar ratios of 1,2-octanediol (caprylyl glycol) to avobenzone, from 0 to 10 (Factor 2), on the photostability of avobenzone in the different sunscreen compositions, numerous studies were conducted. Three designs of experiments that represent central composite designs (CCDs) and D.O.E. Fusion 7.2.2 software were employed.
The CCD type of design was used to determine the effect of two factors: concentration of Avobenzone and the molar ratio 1,2-octanediol/avobenzone on the photostability of avobenzone in the different sunscreen compositions. Two responses were measured: the retained absorbance (%) of a sunscreen composition at 370 nm (UVA) and the same measurement at 310 nm (UVB) after irradiation dose of 15 MED.
The same order of experiments was run in the different set-ups. As a result, two categorical factors were added: Oxybenzone (absent or present at a predetermined constant level) and Octocrylene (absent or present at a predetermined constant level). Table 16 presents the three set-ups as well as the numbers of the formulation tables and response tables.
Response surface equalization were fitted to both responses (retained absorbance at 370 nm and retained absorbance at 310 nm, both after an irradiation dose of 15 MED). The significant factors were selected.

## CCCCC(O)CO (centres unmarked) [1,2-Hexanediol]
[1]
  Dielectric Constant, 23° C.: 15.1
[2]
  photostability of UVB sunscreens at 310 nm (in words): can improve the photostability of UVB sunscreens at 310 nm
  photostability of avobenzone at 370 nm (in words): without the significant improvement of the photostability of avobenzone at 370 nm

## CCCCCCC(O)CO (centres unmarked) [1,2-Octanediol]
[1]; measured at 30° C., solid at room temperature (23 C.)
  Dielectric Constant: 10.61
[3]
  effect on retained absorbance at 310 nm after 15 MED (in words): significantly improves the photostability of sunscreens at 310 nm
  effect on retained absorbance at 370 nm after 15 MED (in words): significantly improves the photostability
[2]
  photostabilization of avobenzone (in words): most effectively stabilizes avobenzone

## CCC(=O)OCCCCO [Butylene Glycol Monopropionate]
[1]
  Dielectric Constant, 23° C.: 11.72

## CCCCOCCOCCO [Diethylene Glycol Monobutyl Ether]
[1]
  Dielectric Constant, 23° C.: 10.59

## CCOCCOCCO [Ethoxydiglycol, Diethylene glycol monoethyl ether]
[1]
  Dielectric Constant, 23° C.: 13.69
[2]
  photostability of UVB sunscreens at 310 nm (in words): can improve the photostability of UVB sunscreens at 310 nm
  photostability of avobenzone at 370 nm (in words): without the significant improvement of the photostability of avobenzone at 370 nm

## CCCCC(CC)COC(=O)C(C#N)=C(c1ccccc1)c1ccccc1 (centres unmarked) [Octocrylene, 2-ethylhexyl-2-cyano-3,3 diphenylacrylate]
[3]
  effect on retained absorbance at 310 nm after 15 MED (in words): gives mild a gain in absorbency
  effect on retained absorbance at 370 nm after 15 MED (in words): helps the absorbance retention 370 nm, but not as significant as in the case of oxybenzone

## COc1ccc(C(=O)c2ccccc2)c(O)c1 [Oxybenzone, oxybenzone]
[3]
  effect on retained absorbance at 310 nm after 15 MED (in words): helps retention at 310 nm
  effect on retained absorbance at 370 nm after 15 MED (in words): gives the highest boost in retain absorbance at 370 nm and 15 MED exposure

## CCCC(O)CO (centres unmarked) [Pentylene Glycol, 1,2-pentanediol]
[1]
  Dielectric Constant, 23° C.: 18.2
[2]
  photostability of UVB sunscreens at 310 nm (in words): can improve the photostability of UVB sunscreens at 310 nm
  photostability of avobenzone at 370 nm (in words): without the significant improvement of the photostability of avobenzone at 370 nm

## Polyethylene Glycol-7 Methyl Ether
[1]
  Dielectric Constant, 23° C.: 13.1
